Structures are written as SMILES. A value given as a limit tells only on which side of the number the result lay.

The test system of the first test is T47D cells expressing mutant PI3Ka (H1047R). The test is described as follows: In vitro cell proliferation, T47D cells (CellTiter-Glo). The class given is cell-based. Conditions: Homo sapiens, T47D, 72 h, inhibition of proliferation, read-out: Avg T-47D EC50. In short, it runs like this: (§1)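 EC50 values derive from a four-parameter logistic fit of luminescence-based (CellTiter-Glo) inhibition, referenced to 0.1% DMSO and 10 uM Alpelisib controls. Compound exposure lasted 72 h at 37 °C.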
A general note: ATP-based viability assays read luminescence as a measure of living cells.
In the case of `Cc1nc(C(F)(F)F)c(F)cc1-c1ncc(-c2cc3c([C@@H](C)Nc4ccccc4C(=O)O)cc(F)cc3c(=O)n2C)cc1F` [Example 576], the EC50 fell in the range of 1 to 500 nM.

Take `C[C@@H](Nc1ccccc1C(=O)O)c1cc(F)cc2c(=O)n(C)c(C34CC(c5ccc(F)cc5F)(C3)C4)cc12` [Example 578]: the EC50 is 1 to 500 nM.

As for `C[C@@H](Nc1ccccc1C(=O)O)c1cc(F)cc2c(=O)n(C)c(-c3cnc(C4(CC(F)(F)F)CC4)nc3)cc12` [Example 579], the EC50 was 1 to 500 nM.

Take `C[C@@H](Nc1ccccc1C(=O)O)c1cc(F)cc2c(=O)n(C)c(C34CC(c5cnn(C(F)F)c5)(C3)C4)c(F)c12` [Example 580]: the EC50 lay within 1 to 500 nM.

Regarding `COc1ncc(-c2c(F)c3c([C@@H](C)Nc4ccccc4C(=O)O)cc(F)cc3c(=O)n2C)s1` [Example 581], the EC50 is 1 to 500 nM.

Consider `Cc1ncc(-c2c(F)c3c([C@@H](C)Nc4ccccc4C(=O)O)cc(F)cc3c(=O)n2C)s1` [Example 582], for which the EC50 lay within 1 to 500 nM.

The same test, now with this note: inhibition of proliferation, 72 hours, read-out: Avg T-47D EC50.
With `C[C@@H](Nc1ccccc1C(=O)O)c1cc(F)cc2c(=O)n(C)c(-c3cnc(-c4cn(C)nc4F)c(F)c3)cc12` [Example 543], the EC50 lay within 1 to 500 nM.

On to `C[C@@H](Nc1ccccc1C(=O)O)c1cc(F)cc2c(=O)n(C)c(-c3ccc(OC4CC(F)(F)C4)nc3)cc12` [Example 546], for which the EC50 is 1 to 500 nM.

With `C[C@@H](Nc1ccccc1C(=O)O)c1cc(F)cc2c(=O)n(C)c(-c3cnc(-c4cc(F)c(F)cc4F)c(F)c3)cc12` [Example 548], the EC50 was in the range of 1 to 500 nM.

Turning to `Cc1ccc(N[C@H](C)c2cc(F)cc3c(=O)n(C)c(-c4ccc(OCC(F)(F)F)nc4)cc23)c(C(=O)O)n1` [Example 557], the EC50 lay in the range of 500 to 2000 nM.

For `CC(Nc1ccccc1C(=O)O)c1cc(F)cc2c(=O)n(C)c(-c3cnc(-c4ccc(F)cc4F)c(F)c3)cc12` (stereo not shown) [Example 560], the EC50 lay in the range of 1 to 500 nM.

With `CC(Nc1ccccc1C(=O)O)c1cc(F)cc2c(=O)n(C)c(-c3ccc(OC4CC4)nc3)c(F)c12` (stereo not shown) [Example 561], the EC50 was 1 to 500 nM.

For the compound `CC(Nc1ccccc1C(=O)O)c1cc(F)cc2c(=O)n(C)c(-c3cnc(OC4CC4)c(F)c3)c(F)c12` (stereo not shown) [Example 565], the EC50 lay in the range of 1 to 500 nM.

The test system of the next test is SKBR3 cells express WT PI3Ka. The test is described as follows: In vitro cell proliferation, SKBR3 cells (CellTiter-Glo). In kind it is cell-based. Particulars: Homo sapiens, SK-BR-3, 72 h, inhibition of proliferation. The gist of the method: as §1
Compound `Cc1nc(C(F)(F)F)c(F)cc1-c1ncc(-c2cc3c([C@@H](C)Nc4ccccc4C(=O)O)cc(F)cc3c(=O)n2C)cc1F` [Example 576] showed an EC50 of 2000 to 15000 nM.

Compound `C[C@@H](Nc1ccccc1C(=O)O)c1cc(F)cc2c(=O)n(C)c(C34CC(c5ccc(F)cc5F)(C3)C4)cc12` [Example 578] gave an EC50 of 2000 to 15000 nM.

With `C[C@@H](Nc1ccccc1C(=O)O)c1cc(F)cc2c(=O)n(C)c(-c3cnc(C4(CC(F)(F)F)CC4)nc3)cc12` [Example 579], the EC50 was in the range of 2000 to 15000 nM.

As for `C[C@@H](Nc1ccccc1C(=O)O)c1cc(F)cc2c(=O)n(C)c(C34CC(c5cnn(C(F)F)c5)(C3)C4)c(F)c12` [Example 580], the EC50 lay in the range of 2000 to 15000 nM.

Regarding `COc1ncc(-c2c(F)c3c([C@@H](C)Nc4ccccc4C(=O)O)cc(F)cc3c(=O)n2C)s1` [Example 581], the EC50 was above 15000 nM.

The compound `Cc1ncc(-c2c(F)c3c([C@@H](C)Nc4ccccc4C(=O)O)cc(F)cc3c(=O)n2C)s1` [Example 582] showed an EC50 above 15000 nM.

Staying with this test, now noted: inhibition of proliferation, 72 hours.
On to `C[C@@H](Nc1ccccc1C(=O)O)c1cc(F)cc2c(=O)n(C)c(-c3cnc(-c4cn(C)nc4F)c(F)c3)cc12` [Example 543], for which the EC50 was above 15000 nM.

Compound `C[C@@H](Nc1ccccc1C(=O)O)c1cc(F)cc2c(=O)n(C)c(-c3ccc(OC4CC(F)(F)C4)nc3)cc12` [Example 546] returned an EC50 above 15000 nM.

For `C[C@@H](Nc1ccccc1C(=O)O)c1cc(F)cc2c(=O)n(C)c(-c3cnc(-c4cc(F)c(F)cc4F)c(F)c3)cc12` [Example 548], the EC50 fell in the range of 2000 to 15000 nM.

As to `Cc1ccc(N[C@H](C)c2cc(F)cc3c(=O)n(C)c(-c4ccc(OCC(F)(F)F)nc4)cc23)c(C(=O)O)n1` [Example 557], the EC50 lay within 2000 to 15000 nM.

In turn, `CC(Nc1ccccc1C(=O)O)c1cc(F)cc2c(=O)n(C)c(-c3cnc(-c4ccc(F)cc4F)c(F)c3)cc12` (stereo not shown) [Example 560] came in with an EC50 of 2000 to 15000 nM.

In the case of `CC(Nc1ccccc1C(=O)O)c1cc(F)cc2c(=O)n(C)c(-c3ccc(OC4CC4)nc3)c(F)c12` (stereo not shown) [Example 561], the EC50 is above 15000 nM.

For `CC(Nc1ccccc1C(=O)O)c1cc(F)cc2c(=O)n(C)c(-c3cnc(OC4CC4)c(F)c3)c(F)c12` (stereo not shown) [Example 565], the EC50 is above 15000 nM.

The next test deals with phosphorylation of AKT (pAKT) in T47D cells expressing mutant PI3Ka (H1047R). The test is described as follows: In vitro cell pAKT (Ser473) HTRF, T47D cells. In kind it is cell-based. Particulars: Homo sapiens, T47D, 6 h, cellular pAKT, T47D cells, mutant PI3Ka (H1047R), 6 hours; read-out: Avg T-47D IC50. The gist of the method:
(§2)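 pAKT (Ser473) was quantified by HTRF in lysates from cells exposed 6 h at 37 °C to 10-point compound series, with T47D in insulin-supplemented RPMI/10% FBS and SKBR3 in McCoy's 5a/10% FBS. Controls: 0.1% DMSO (high) and 10 uM alpelisib (low). IC50 from sigmoidal curve fitting.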
A general note: TR-FRET usually uses a lanthanide donor and a delayed reading to cut background.
Regarding `Cc1nc(C(F)(F)F)c(F)cc1-c1ncc(-c2cc3c([C@@H](C)Nc4ccccc4C(=O)O)cc(F)cc3c(=O)n2C)cc1F` [Example 576], the IC50 was 1 to 500 nM.

Consider `C[C@@H](Nc1ccccc1C(=O)O)c1cc(F)cc2c(=O)n(C)c(C34CC(c5ccc(F)cc5F)(C3)C4)cc12` [Example 578], for which the IC50 lay in the range of 1 to 500 nM.

Take `C[C@@H](Nc1ccccc1C(=O)O)c1cc(F)cc2c(=O)n(C)c(-c3cnc(C4(CC(F)(F)F)CC4)nc3)cc12` [Example 579]: the 50% inhibitory concentration (IC50) was 1 to 500 nM.

Consider `C[C@@H](Nc1ccccc1C(=O)O)c1cc(F)cc2c(=O)n(C)c(C34CC(c5cnn(C(F)F)c5)(C3)C4)c(F)c12` [Example 580], for which the IC50 lay within 1 to 500 nM.

For the compound `COc1ncc(-c2c(F)c3c([C@@H](C)Nc4ccccc4C(=O)O)cc(F)cc3c(=O)n2C)s1` [Example 581], the IC50 lay in the range of 1 to 500 nM.

For the compound `Cc1ncc(-c2c(F)c3c([C@@H](C)Nc4ccccc4C(=O)O)cc(F)cc3c(=O)n2C)s1` [Example 582], the IC50 lay in the range of 1 to 500 nM.

The same test, now with this note: cellular pAKT, T47D cells, mutant PI3Ka (H1047R), 6 hours; read-out: Avg T-47D IC50.
As to `C[C@@H](Nc1ccccc1C(=O)O)c1cc(F)cc2c(=O)n(C)c(-c3cnc(-c4cn(C)nc4F)c(F)c3)cc12` [Example 543], the 50% inhibitory concentration (IC50) lay in the range of 1 to 500 nM.

Turning to `C[C@@H](Nc1ccccc1C(=O)O)c1cc(F)cc2c(=O)n(C)c(-c3ccc(OC4CC(F)(F)C4)nc3)cc12` [Example 546], the IC50 fell in the range of 1 to 500 nM.

Consider `C[C@@H](Nc1ccccc1C(=O)O)c1cc(F)cc2c(=O)n(C)c(-c3cnc(-c4cc(F)c(F)cc4F)c(F)c3)cc12` [Example 548], for which the IC50 lay within 1 to 500 nM.

`Cc1ccc(N[C@H](C)c2cc(F)cc3c(=O)n(C)c(-c4ccc(OCC(F)(F)F)nc4)cc23)c(C(=O)O)n1` [Example 557]: the IC50 is 1 to 500 nM.

Take `CC(Nc1ccccc1C(=O)O)c1cc(F)cc2c(=O)n(C)c(-c3cnc(-c4ccc(F)cc4F)c(F)c3)cc12` (stereo not shown) [Example 560]: the IC50 is 1 to 500 nM.

As to `CC(Nc1ccccc1C(=O)O)c1cc(F)cc2c(=O)n(C)c(-c3ccc(OC4CC4)nc3)c(F)c12` (stereo not shown) [Example 561], the IC50 is 1 to 500 nM.

Consider `CC(Nc1ccccc1C(=O)O)c1cc(F)cc2c(=O)n(C)c(-c3cnc(OC4CC4)c(F)c3)c(F)c12` (stereo not shown) [Example 565], for which the IC50 was 1 to 500 nM.

Another test deals with phosphorylation of AKT (pAKT) in SKBR3 cells express WT PI3Ka. In words: In vitro cell pAKT (Ser473) HTRF, SKBR3 cells. The class given is cell-based. Particulars: Homo sapiens, SK-BR-3, 6 h, cellular pAKT. The gist of the method: as §2
On to `Cc1nc(C(F)(F)F)c(F)cc1-c1ncc(-c2cc3c([C@@H](C)Nc4ccccc4C(=O)O)cc(F)cc3c(=O)n2C)cc1F` [Example 576], for which the 50% inhibitory concentration (IC50) was above 15000 nM.

`C[C@@H](Nc1ccccc1C(=O)O)c1cc(F)cc2c(=O)n(C)c(C34CC(c5ccc(F)cc5F)(C3)C4)cc12` [Example 578] had an IC50 of 2000 to 15000 nM.

`C[C@@H](Nc1ccccc1C(=O)O)c1cc(F)cc2c(=O)n(C)c(-c3cnc(C4(CC(F)(F)F)CC4)nc3)cc12` [Example 579] showed an IC50 above 15000 nM.

On to `C[C@@H](Nc1ccccc1C(=O)O)c1cc(F)cc2c(=O)n(C)c(C34CC(c5cnn(C(F)F)c5)(C3)C4)c(F)c12` [Example 580], for which the 50% inhibitory concentration (IC50) fell in the range of 2000 to 15000 nM.

Regarding `COc1ncc(-c2c(F)c3c([C@@H](C)Nc4ccccc4C(=O)O)cc(F)cc3c(=O)n2C)s1` [Example 581], the IC50 was above 15000 nM.

As for `Cc1ncc(-c2c(F)c3c([C@@H](C)Nc4ccccc4C(=O)O)cc(F)cc3c(=O)n2C)s1` [Example 582], the IC50 was above 15000 nM.

The test is the same for the next values; noted with them: cellular pAKT, 6 hours.
In turn, `C[C@@H](Nc1ccccc1C(=O)O)c1cc(F)cc2c(=O)n(C)c(-c3cnc(-c4cn(C)nc4F)c(F)c3)cc12` [Example 543] registered an IC50 above 15000 nM.

`C[C@@H](Nc1ccccc1C(=O)O)c1cc(F)cc2c(=O)n(C)c(-c3ccc(OC4CC(F)(F)C4)nc3)cc12` [Example 546] yielded an IC50 above 15000 nM.

For the compound `C[C@@H](Nc1ccccc1C(=O)O)c1cc(F)cc2c(=O)n(C)c(-c3cnc(-c4cc(F)c(F)cc4F)c(F)c3)cc12` [Example 548], the IC50 is above 15000 nM.

The compound `Cc1ccc(N[C@H](C)c2cc(F)cc3c(=O)n(C)c(-c4ccc(OCC(F)(F)F)nc4)cc23)c(C(=O)O)n1` [Example 557] came in with an IC50 above 15000 nM.

As for `CC(Nc1ccccc1C(=O)O)c1cc(F)cc2c(=O)n(C)c(-c3cnc(-c4ccc(F)cc4F)c(F)c3)cc12` (stereo not shown) [Example 560], the IC50 was above 15000 nM.

In the case of `CC(Nc1ccccc1C(=O)O)c1cc(F)cc2c(=O)n(C)c(-c3ccc(OC4CC4)nc3)c(F)c12` (stereo not shown) [Example 561], the IC50 is above 15000 nM.

In turn, `CC(Nc1ccccc1C(=O)O)c1cc(F)cc2c(=O)n(C)c(-c3cnc(OC4CC4)c(F)c3)c(F)c12` (stereo not shown) [Example 565] came in with an IC50 above 15000 nM.

The EC50 is the concentration giving half of the maximal effect. One may read the IC50 as the concentration needed to halve the response being measured.

Values taken from patent US20260078103A1, “ISOQUINOLONES AS PI3K INHIBITORS” (OnKure, Inc., priority 2022, published 2026).
